Results as given in patent US20250130225A1, “SUBSTRATES FOR IMAGING GLUCOCEREBROSIDASE ACTIVITY” (SIMON FRASER UNIVERSITY, priority 2021, published 2025).

Key:
[1] = Fluorescence emission spectrum and quenching efficiency of substrate 1 versus BODIPY FL-acid; type: physicochemical
Procedure: Fluorescence emission spectra for substrate 1 and BODIPY® FL-acid: The emission spectra were obtained for substrate 1 and BODIPY® FL-acid in citrate-phosphate buffer (150 mM; pH 5.4) containing 1% DMSO and 0.25% taurodeoxycholate. Data were collected using a Molecular Devices plate reader ([…]). […] The excitation wavelength used was 485 nm and the emission wavelength was 513 nm.
Determination of the quenching efficiencies for substrate 1 using concentration dependent variation in the fluorescence emission of substrate 1 and its corresponding fluorophore BODIPY® FL-acid: The quenching efficiencies were determined by comparing the fluorescence emission standard curves of substrate 1 and comparing it to that of BODIPY® Fl-acid.

GCase = target: T1, GCase (Homo sapiens, UniProt P04062); test: GCase inhibition by AT3375 in live SK-N-SH cells read with substrate 1; type: cell-based; settings: 10 μM AT3375 with 5 μM substrate 1, 2 h
T1 construct: High content imaging of SK-N-SH cells incubated for 2 h; endogenous in cells; host or cells: SK-N-SH
T1 sequence (P04062 40-536): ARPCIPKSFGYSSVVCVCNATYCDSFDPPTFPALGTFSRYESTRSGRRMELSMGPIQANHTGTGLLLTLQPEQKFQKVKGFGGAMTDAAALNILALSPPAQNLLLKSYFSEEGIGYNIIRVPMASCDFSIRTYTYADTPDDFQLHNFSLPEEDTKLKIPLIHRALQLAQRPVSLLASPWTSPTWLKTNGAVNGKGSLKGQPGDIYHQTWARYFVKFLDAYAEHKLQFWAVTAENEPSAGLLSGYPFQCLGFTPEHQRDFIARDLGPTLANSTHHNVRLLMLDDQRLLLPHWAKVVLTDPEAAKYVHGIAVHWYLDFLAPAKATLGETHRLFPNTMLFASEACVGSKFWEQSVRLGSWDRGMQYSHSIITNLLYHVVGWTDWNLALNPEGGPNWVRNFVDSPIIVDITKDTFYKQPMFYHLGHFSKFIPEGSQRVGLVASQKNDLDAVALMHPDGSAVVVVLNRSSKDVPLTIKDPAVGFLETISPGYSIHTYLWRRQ
Procedure: After incubation at 37° C. and 5% CO2 for 2 h, the media was removed and the cells were washed.
After incubation at 37° C. and 5% CO2 for 2 h, the media was removed, and the cells were washed. The plate was then imaged using a Molecular Devices ImageXpress XLS High-Content Imager. From the images, the total mean integrated intensity was measured for the FITC channel and divided by the number of cells within the imaging site as determined by the DAPI staining.

[2] = target: T2, purified recombinant GCase (Homo sapiens, UniProt P04062); test: In-vitro kinetic assay with purified recombinant GCase; type: biochemical; settings: same kinetic assay, substrate 3 vs 9b
T2 construct: purchased R&D Systems
T2 sequence (P04062 40-536): T1 sequence (P04062 40-536)
Procedure: (§1) In-vitro kinetic assay for substrate 1. Continuous assays were performed at 30° C. in citrate-phosphate buffer (150 mM; pH 5.4) containing 0.25% taurodeoxycholate. The concentrations of substrate 1 used in assays were 0.39, 0.78, 1.56, 3.13 6.25, 12.5, 25 and 50 μM. Reactions were initiated by the addition of purified recombinant GCase (2.5 nM, R&D Systems) and the reaction was monitored continuously over 1200 seconds to determine the initial rate of change of fluorescence. Standard curves were constructed using BODIPY® Fl-acid using the same buffer conditions. […] Assays were carried out in triplicate.
as §1, with “Comparative In-vitro” for “In-vitro”, “substrate 3 and 9b.” for “substrate 1.”, “of substrates 3 and 9b” for “of substrate 1”, “were 0.156, 0.313, 0.625, 1.25, 2.5, 5, 10,” for “were 0.39, 0.78, 1.56, 3.13 6.25, 12.5, 25”, “and 20” for “and 50”, “using TAMRA and BODIPY-576” for “using BODIPY® Fl-acid”

For COc1cc(/N=N/c2ccc(C)cc2[N+](=O)[O-])c(C)cc1/N=N/c1ccc(N(C)CCCC(=O)NCCCO[C@@H]2O[C@H](COCc3cn(CCCNC(=O)[C@H](CCCCN(C)C)NC(=O)CCC4=[N+]5C(=Cc6c(C)cc(C)n6[B-]5(F)F)C=C4)nn3)[C@@H](O)[C@H](O)[C@H]2O)cc1 [substrate 1, (S)-2-(3-(5,5-difluoro-7,9-dimethyl-dipyrrolo[1,2-c:2′,1′-f][1,3,2]diazaborinin-4-ium-5-uid-3-yl)propanamido)-6-(dimethylamino)-N-(3-(4-((((2R,3S,4S,5R,6R)-3,4,5-trihydroxy-6-(3-(4-((4-((E)-(2-methoxy-5-methyl-4-((E)-(4-methyl-2-nitrophenyl)diazenyl)phenyl)diazenyl)phenyl)(methyl)amino)butanamido)propoxy)tetrahydro-2H-pyran-2-yl)methoxy)methyl)-1H-1,2,3-triazol-1-yl)propyl)hexanamide], the “fluorescence emission of intact substrate compared to free fluorophore BODIPY FL-acid” value ([1]; 6.25 μM, citrate-phosphate buffer 150 mM, pH 5.4, excitation 485 nm, emission 513 nm) was “strikingly little fluorescence” and the quenching efficiency ([1]; fluorescence emission standard curves compared to BODIPY Fl-acid) was “greater than 99.7%”.

For O[C@H]1[C@H](O)CNC[C@@H]1C(F)F [AT3375, (3R,4R,5S)-5-(difluoromethyl)piperidine-3,4-diol], the “effect on fluorescent signal from substrate 1” value (GCase) was “significant reduction of the punctuated fluorescent signal”.

With COc1cc(/N=N/c2ccc([N+](=O)[O-])cc2)c(OC)cc1/N=N/c1ccc(N(C)CCCC(=O)NCCc2ccc(O[C@@H]3O[C@H](COCCCCn4cc(CNC(=O)[C@H](CCCCN(C)C)NC(=O)c5ccc(-c6c7ccc(=[N+](C)C)cc-7oc7cc(N(C)C)ccc67)c(C(=O)O)c5)nn4)[C@@H](O)[C@H](O)[C@H]3O)cc2)cc1 [substrate 3, 5-(((S)-1-(((1-(4-(((2R,3S,4S,5R,6S)-6-(4-(2-(4-((4-((E)-(2,5-dimethoxy-4-((E)-(4-nitrophenyl)diazenyl)phenyl)diazenyl)phenyl)(methyl)amino)butanamido)ethyl)phenoxy)-3,4,5-trihydroxytetrahydro-2H-pyran-2-yl)methoxy)butyl)-1H-1,2,3-triazol-4-yl)methyl)amino)-6-(dimethylamino)-1-oxohexan-2-yl)carbamoyl)-2-(6-(dimethylamino)-3-(dimethyliminio)-3H-xanthen-9-yl)benzoate] the “second order rate constant relative to 9b” value [2] was “more than 5 fold”.
